Test [1] deals with Histone acetyltransferase GCN5 (Saccharomyces cerevisiae S288c) (UniProt Q03330). The experiment in a line: Inhibition of Saccharomyces cerevisiae recombinant GCN5 assessed as histone H3 acetylation.
For test [2], the system named is Toxoplasma gondii. The experiment in a line: Decrease in acetylated histone H3 levels in Toxoplasma gondii tachyzoites after 3 days by immunoblotting. Type of test: functional, organism-based. In general terms: Immunoblotting shows a protein as a band on a membrane.
The subject of test [3] is Toxoplasma gondii. The experiment in a line: Inhibition of Toxoplasma gondii in human foreskin fibroblasts at 100 uM relative to DMSO. It counts as functional.
Test [4] has as its system Toxoplasma gondii. The experiment in a line: Inhibition of Toxoplasma gondii in human foreskin fibroblasts relative to DMSO. Type of test: functional, organism-based.
In test [5] the test system is Toxoplasma gondii. The experiment in a line: Effect on apicoplasts in Toxoplasma gondii at 200 uM by DAPI staining relative to DMSO. It counts as functional.

This passage reports Activity and inhibition results from ChEMBL document CHEMBL1142079, “Quinoline derivative MC1626, a putative GCN5 histone acetyltransferase (HAT) inhibitor, exhibits HAT-independent activity against Toxoplasma gondii” (2007).

The structures appear in SMILES notation. The source made the active and inactive calls. The rule behind the calls is not given here.

The term inhibition denotes the drop in the measured response relative to a control, in per cent. A higher inhibition goes with a strong effect.

Sequence of Histone acetyltransferase GCN5 (Saccharomyces cerevisiae S288c) (Q03330 whole entry): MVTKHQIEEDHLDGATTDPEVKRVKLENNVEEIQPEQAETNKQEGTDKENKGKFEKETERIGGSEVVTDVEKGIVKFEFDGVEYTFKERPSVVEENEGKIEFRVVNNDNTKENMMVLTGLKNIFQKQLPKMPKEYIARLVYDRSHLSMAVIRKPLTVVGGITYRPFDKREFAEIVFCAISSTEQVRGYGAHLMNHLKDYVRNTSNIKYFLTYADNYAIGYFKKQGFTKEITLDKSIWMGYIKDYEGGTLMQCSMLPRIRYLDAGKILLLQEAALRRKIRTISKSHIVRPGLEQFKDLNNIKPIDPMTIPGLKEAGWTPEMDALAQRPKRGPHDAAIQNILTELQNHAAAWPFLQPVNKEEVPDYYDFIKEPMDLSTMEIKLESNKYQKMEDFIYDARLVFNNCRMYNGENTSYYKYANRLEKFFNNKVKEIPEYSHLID

On to `C=CC/C=C\C/C=C\CCCCCCCc1cccc(O)c1C(=O)O`, for which the result in test [1] was Active.
For the compound `CCOC(=O)c1cc2ccccc2nc1C`, the result in test [2] and in test [1] was inactive. The compound further displayed an inhibition at 100 µM in test [3] of 50%. The figures for the Activity entry in test [4] and in test [5] were “Dose-dependent effect” and 52%, respectively.
